Measured values taken from US9783519B2, “Palladium/silver co-catalyzed tandem reactions synthesis of phenylacetophenone derivatives by oxabenzonorbornadienes with terminal alkynes and their anti-tumor or anti-cancer activities” (Hong Kong Baptist University, priority 2015, dated 2017).
Read-outs that look alike come from different tables or passages of the source.

How the values were obtained:
[1] = test system: MKN-45 (human gastric aednocarcinoma); assay: MTT cytotoxicity assay, MKN-45; type: cell-based; conditions: 48 hrs treatment
Description: (§1) Cytotoxic activities of all compounds were evaluated by MTT assay using KYSE-150 (human oesophagus carcinoma), MKN-45 (human gastric aednocarcinoma), DLD-1 (human colorectal carcinoma cell line), Hep G2 (human hepatocellular carcinoma). […] 3ag, 3al, 3an, 3ea and 3ha also have the same inhibitory effect on different cell lines with IC50 value lower than 10 μM. Thus, except 3ac, 3ad, 3ae, 3ah, and 3ab, the other compounds all exert definitely anti-cancer effect.
(§2) In this study, all compounds were dissolved in dimethyl sulfoxide (DMSO) to make stock solutions and further diluted in culture medium for this experiment. Human cancer cell lines, including one gastric adenocarcinoma cell line (MKN-45), one colon carcinoma cell line (DLD-1), one esophageal carcinoma cell line (KYSE-150) and one hepatocellular carcinoma cell line (HepG2) were cultured in RPMI 1640 or DMEM medium, containing 10% fetal bovine serum and 1% antibiotics (Penicillin and strep). The cell lines were cultured at 37° C. in a humidified environment containing 5% CO2. To determine the effects of the compounds on cell viability, a standard colorimetric 3-(4,5-dimethylthiazol-2-yl)-2,5-diphenyltetrazolium bromide (MTT) assay was used to test the cell number. Cells were seeded in a 96-well plate (4×10^3 cells/well) and allowed to attach overnight. After the recovery, cells were treated with 1.56, 3.125, 6.25, 12.5, 25, 50 μM of compounds in culture medium for 48 hrs. Then, 20 μL of MTT (5 mg/mL stock in PBS) per well was added into the medium (200 μL) and incubated for 4 hrs at 37° C. Finally, the culture medium was removed and 200 μL of DMSO were added to dissolve the purple formazan crystals. Absorbance of the solution was measured using microplate reader spectrophotometer (Bio-Rad Laboratories, Inc., Hercules, Calif.) at a wavelength of 570 nm.

[2] = test system: KYSE-150 (human oesophagus carcinoma); assay: MTT cytotoxicity assay, KYSE-150; type: cell-based; conditions: 48 hrs treatment
Description: as §1, §2

KYSE-150 cells [3] = assay: Wound healing assay; type: cell-based, human
[4] = test system: DLD-1 (human colorectal carcinoma cell line); assay: MTT cytotoxicity assay, DLD-1; type: cell-based; conditions: 48 hrs treatment
Description: as §1, §2

KYSE-150 cells [5] = assay: Wound healing assay; type: cell-based, human; conditions: 48 h
Description: Original magnification, 5×.
Further, wound-healing assay was used to test whether those novel compounds could affect cell motility.
A wound-healing assay was performed as follows: cells were seeded in 12 wells plate at 50% confluence in completed medium. After 24 hrs seeding, the monolayer was wounded by scoring with a sterile plastic tip (1 mL), then washed several times with medium to remove cell debris and then incubated in conditioned medium in the absence or presence of tested compounds for various periods of time up to 48 h. […] Cell migration into the wound surface was monitored by Olympus IX71 microscopy and digitally photographed.

[6] = test system: Hep G2 (human hepatocellular carcinoma); assay: MTT cytotoxicity assay, Hep G2; type: cell-based; conditions: HepG2, 48 hrs treatment
Description: as §1, §2

[7] = test system: KYSE-150, MKN-45, DLD-1, Hep G2; assay: MTT cytotoxicity assay, summary over the test cell lines; type: cell-based; conditions: Homo sapiens, summary of Table 6
Description: as §1, §2

[8] = all test cell lines, read-out: IC50, cell growth-inhibiting effect against all test cell lines (below or near)
[9] = on different (not all) cell lines, read-out: IC50, inhibitory effect on different cell lines

Row | SMILES | IC50 [1] | IC50 [2] | viability of KYSE-150 cells compared to controls (KYSE-150 cells [3]; 10 μM) | IC50 [4] | cell migration into the wound (KYSE-150 cells [5]; 10 μM) | IC50 [6] | melting point | IC50 [7, 8] | IC50 [7, 9] | viability of KYSE-150 cells compared to controls (KYSE-150 cells [3]; 5 μM) | cell migration into the wound (KYSE-150 cells [5]; 5 μM)
1 | O=C(Cc1ccc2ccccc2c1)c1ccccc1 [Compound 3aa, 2-(naphthalen-2-yl)-1-phenylethanone] | 15.6 µM | 10.9 µM | did not alter the viability | 12.4 µM | did not migrate into the wound | 20.8 µM | 122 to 124 °C | – | – | – | –
2 | COc1ccc(C(=O)Cc2ccc3ccccc3c2)cc1 [Compound 3ab, 1-(4-methoxyphenyl)-2-(naphthalen-2-yl) ethanone] | 10.1 µM | 5.19 µM | did not alter the viability | 7.89 µM | did not migrate into the wound | 7.63 µM | 125 to 127 °C | ~10 µM | – | – | –
3 | COc1ccccc1C(=O)Cc1ccc2ccccc2c1 [Compound 3ac, 1-(2-methoxyphenyl)-2-(naphthalen-2-yl) ethanone] | > 50 µM | > 50 µM | – | > 50 µM | – | > 50 µM | 100 to 102 °C | – | – | – | –
4 | COc1cccc(C(=O)Cc2ccc3ccccc3c2)c1 [Compound 3ad, 1-(3-methoxyphenyl)-2-(naphthalen-2-yl) ethanone] | > 50 µM | > 50 µM | – | > 50 µM | – | > 50 µM | 102 to 103 °C | – | – | – | –
5 | COc1cc(OC)cc(C(=O)Cc2ccc3ccccc3c2)c1 [Compound 3ae, 1-(3,5-dimethoxyphenyl)-2-(naphthalen-2-yl) ethanone] | > 50 µM | > 50 µM | – | > 50 µM | – | 42.8 µM | 70 to 71 °C | – | – | – | –
6 | O=C(Cc1ccc2ccccc2c1)c1ccc(F)cc1 [Compound 3af, 1-(4-fluorophenyl)-2-(naphthalen-2-yl) ethanone] | 4.04 µM | 2.56 µM | – | 5.27 µM | – | 4.23 µM | 145 to 147 °C | ~10 µM | – | – | –
7 | O=C(Cc1ccc2ccccc2c1)c1ccc(Oc2ccccc2)cc1 [Compound 3ag, 2-(naphthalen-2-yl)-1-(4-phenoxyphenyl) ethanone] | > 50 µM | 1.19 µM | – | 4.95 µM | – | 4.84 µM | 139 to 141 °C | – | < 10 µM | – | –
8 | O=C(Cc1ccc2ccccc2c1)c1ccc(OC(F)(F)F)cc1 [Compound 3ah, 2-(naphthalen-2-yl)-1-(4-(trifluoromethoxy)phenyl) ethanone] | > 50 µM | > 50 µM | – | > 50 µM | – | > 50 µM | 153 to 154 °C | – | – | – | –
9 | O=C(Cc1ccc2ccccc2c1)c1ccc(Br)cc1 [Compound 3ai, 1-(4-bromophenyl)-2-(naphthalen-2-yl) ethanone] | 4.45 µM | 2.02 µM | – | 3.3 µM | – | 1.32 µM | 157 to 159 °C | ~10 µM | – | – | –
10 | Cc1ccc(C(=O)Cc2ccc3ccccc3c2)cc1 [Compound 3aj, 2-(naphthalen-2-yl)-1-(p-tolyl) ethanone] | 12 µM | 18.4 µM | – | > 50 µM | – | > 50 µM | 144 to 146 °C | – | – | – | –
11 | O=C(Cc1ccc2ccccc2c1)c1ccc(CO)cc1 [Compound 3ak, 1-(4-(hydroxymethyl)phenyl)-2-(naphthalen-2-yl) ethanone] | > 50 µM | 31.3 µM | – | 48.2 µM | – | > 50 µM | 97 to 98 °C | – | – | – | –
12 | O=C(Cc1ccc2ccccc2c1)c1ccc(C(F)(F)F)cc1 [Compound 3al, 2-(naphthalen-2-yl)-1-(4-(trifluoromethyl)phenyl) ethanone] | > 50 µM | 4.75 µM | – | 37.4 µM | – | 29.9 µM | 179 to 181 °C | – | < 10 µM | – | –
13 | N#Cc1ccc(C(=O)Cc2ccc3ccccc3c2)cc1 [Compound 3am, 4-(2-(naphthalen-2-yl)acetyl) benzonitrile] | > 50 µM | 33.5 µM | – | > 50 µM | – | > 50 µM | 152 to 154 °C | – | – | – | –
14 | [2H]C(C(=O)c1ccccc1)c1ccc2ccccc2c1 (stereo not drawn) [Compound 3an, 2-(naphthalen-2-yl)-1-phenylethanone-2-D] | 43.1 µM | 7.43 µM | did not alter the viability | > 50 µM | did not migrate into the wound | 22 µM | 129 to 130 °C | – | < 10 µM | – | –
15 | COc1ccc(OC)c2cc(CC(=O)c3ccccc3)ccc12 [Compound 3ba, 2-(5,8-dimethoxynaphthalen-2-yl)-1-phenylethanone] | > 50 µM | > 50 µM | – | > 50 µM | – | > 50 µM | 145 to 146 °C | – | – | – | –
16 | Cc1ccc(C)c2cc(CC(=O)c3ccccc3)ccc12 [Compound 3ca, 2-(5,8-dimethylnaphthalen-2-yl)-1-phenylethanone] | > 50 µM | 19.2 µM | – | > 50 µM | – | > 50 µM | 123 to 124 °C | – | – | – | –
17 | Cc1cc2ccc(CC(=O)c3ccccc3)cc2cc1C [Compound 3da, 2-(6,7-dimethylnaphthalen-2-yl)-1-phenylethanone] | 3.71 µM | 7.69 µM | – | 0.78 µM | – | > 50 µM | 142 to 144 °C | – | – | did not alter the viability | did not migrate into the wound
18 | O=C(Cc1ccc2cc(Br)c(Br)cc2c1)c1ccccc1 [Compound 3ea, 2-(6,7-dibromonaphthalen-2-yl)-1-phenylethanone] | 12.1 µM | 2.38 µM | did not alter the viability | 2.7 µM | did not migrate into the wound | 16.1 µM | 152 to 154 °C | – | < 10 µM | – | –
19 | C(#Cc1ccc2cc3c(cc2c1)OCCO3)c1ccccc1 [Compound 3ga, 7-(phenylethynyl)-2,3-dihydronaphtho [2,3-b][1,4] dioxine] | 35.1 µM | 24.7 µM | did not alter the viability | 19.7 µM | did not migrate into the wound | 45.2 µM | 130 to 132 °C | – | – | – | –
20 | C(#Cc1ccc2cc3c(cc2c1)OCO3)c1ccccc1 [Compound 3ha, 6-(phenylethynyl) naphtho [2,3-d][1,3] dioxole] | 20.8 µM | 3.52 µM | – | 0.55 µM | – | 0.65 µM | 154 to 155 °C | – | < 10 µM | – | –
